In patent US8569229B2, “Compositions and methods which modulate G-protein signaling for the treatment of inflammatory disorders such as asthma and allergic conjunctivitis” (The Children's Hospital of Philadelphia, priority 2008, dated 2013):
Several values for one entry are separate records, joined by “and”; a condition that tells them apart may be missing. Equal values may be shown once. Entries after “also recorded” stand apart in the source; their conditions may differ. Numbered stars: 1 amine (or outer) side, 2 acyl side, 3 side chain; on linkers, the order of the positions; unused ones are H or OH. Bridge positions count the residues as written; N and C are the ends. Square brackets hold non-standard residues; d marks the D form. Ends that are not written are not given here. Peptide text beside a SMILES is read from it. I, II: the chains in the order shown. Actinocin(9to1) = Cc1c2oc3c(C)ccc(C(=O)[*:1])c3nc-2c(C(=O)[*:2])c(N)c1=O; NMeV = CN[C@H](C(=O)O)C(C)C; Sar = CNCC(=O)O

What was measured:
[1] = system: human ASM cells; assay: Assay of cAMP PDE activity in ASM cell lysates; assay type: cell-based; conditions: for effect of the agent alone on basal PDE activity: no cAMP-elevating agent; for PDE activity, fold above control: cells incubated 24 hr with the agent (PGE2 or forskolin 100 μM; salmeterol or isoproterenol 10 μM)
Procedure: Assay of cAMP PDE activity: Levels of cAMP PDE activity were assayed in ASM cell lysates using a colorimetric, non-radioactive enzymatic assay kit from Biomol, as per the manufacture's protocol. PDE activity was determined following exposure of ASM cells for 24 hr to either vehicle alone (control), PGE2 (100 μM), or forskolin (100 μM) in the absence and presence of pretreatment with rolipram (10 μM), cycloheximide (100 μM), actinomycin D (4 μM), or H89 (10 μM).
In each case, the measured levels of PDE activity were standardized to the protein content in the cell extracts.

[2] = system: human ASM cells; assay: Assay of cAMP PDE activity in ASM cell lysates; assay type: cell-based; conditions: for effect of pretreatment on PGE2- and forskolin-induced increases in PDE activity: PGE2 or forskolin x 24 hr (100 μM in text, 100 nM in legends); for effect of pretreatment on salmeterol- and isoproterenol-induced increase in PDE activity: salmeterol or isoproterenol 10 μM x 24 hr; for effect of pretreatment on PGE2-induced increase in PDE activity: PGE2 100 nM x 24 hr, peptides 30 μM (Example III)
[3] = system: PDE4D5 mRNA; assay: Detection of PDE4D5 mRNA transcripts by RT-PCR in ASM cells; assay type: cell-based, human
From the text: (§1) Detection of PDE4D5 mRNA transcripts: Total RNA was extracted from the cultured ASM cells using the TRIzol method (Invitrogen), and cDNAs were isolated by RT-PCR using the SuperScript First Strand Synthesis System kit from Invitrogen, with the following oligonucleotide primer sets (Integrated DNA Technologies): for PDE4D5, 5′-[…]-3′ (forward; SEQ ID NO: 2) and 5′-[…]-3′ (reverse; SEQ ID NO: 3); and for β-actin, 5′-[…]-3′ (forward; SEQ ID NO: 4) and 5′-[…]-3′ (reverse; SEQ ID NO: 5). The reaction volume was 20 μl and cycling conditions used were 35 cycles of 30 sec denaturation at 95° C., followed by 30 sec annealing at 60° C. and elongation at 72° C. for 30 sec. Ex-Tag (Takara Biotechnology) was used as DNA polymerase. […] Following protein extraction and the addition of gel-loading buffer, the extracts were loaded on a 10% SDS-PAGE gel for immunoblotting after transfer to a PVDF membrane. The membranes were then incubated overnight with monoclonal mouse anti-human primary antibodies directed against phospho-CREB and -ATF1, phospho-ERK1/2, or α-actin, and levels were detected by ECL after a 1-hr incubation with a 1:2,000 dilution of HRP-conjugated rabbit anti-mouse secondary antibody, followed by exposure to autoradiography film. The protein band intensities were quantified by densitometry. siRNA-mediated knockdown of PKA: ASM cells were seeded into 6-well plates and, at ˜40% confluency, the medium was replaced with the reduced serum-containing medium, Opti-MEM (Invitrogen). The cells were then transfected twice during a 24-hr interval with two pools of three siRNA duplexes, each pool targeted against the human PKAα or PKAγ catalytic subunits (Santa Cruz Biotechnology; sc-36240 and sc-36236, respectively), or with a non-targeted control (scrambled) siRNA duplex, using Oligofectamine (Invitrogen) as the transfection agent. The pools of siRNAs were applied to each well at a final concentration of 100 nM for each siRNA preparation. […] Transfection of ASM cells with adeno-βARK-ct: Adenovirus (adeno)-βARK-ct, an adenovirus vector encoding the βARK1 carboxyl-terminal domain which blocks Gβγ signaling (25,26), and adeno-β-gal, an adenovirus vector expressing lacZ as a negative control, were constructed using the AdenoX adenovirus construction kit (BD-Clontech). Recombinant plaques were isolated and propagated in HEK293 cells (Invitrogen), with viral purification using the cesium chloride gradient method, and viral titer detected by plaque assay. The ASM cells were transfected with either of the adenoviral vectors at a multiplicity of infection (MOI) of 100, and experiments were conducted at 24 hr following adenoviral tranfections. Pharmacodynamic studies of constrictor and relaxation responsiveness in rabbit ASM tissues: Following initial sedation and subsequent general anesthesia with intramuscular injections of xylazine (10 mg/kg) and ketamine (50 mg/kg), respectively, rabbits were sacrificed with an intravenously administered overdose of sodium pentobarbital (100 mg/kg). As described previously (16), the tracheae were excised via open thoracotomy, the loose connective tissue and epithelium were scraped and removed, and the tracheae were divided into 8 ring segments, each of 6-8 mm in length. […] After these incubations, the tissues were placed in organ baths containing modified Krebs-Ringer solution aerated with 5% CO2 in oxygen (pH of 7.35-7.40), and attached to force transducers to continuously monitor isometric tension. […] The constrictor and relaxation dose-response curves were analyzed with respect to each tissue's maximal isometric contractile force (Tmax) to ACh and maximal relaxation response (Rmax) to isoproterenol from the initial level of active cholinergic contraction. Statistical analyses: Results are expressed as mean±SE values. Comparisons between groups were made using the Student's t-test (two-tailed) or ANOVA with Tukey's post-test analysis, where appropriate.

[4] = system: CREB/ATF1; assay: Immunoblot analysis of CREB/ATF1 phosphorylation in ASM cells; assay type: cell-based, human; conditions: PGE2 100 nM
From the text: as §1

[5] = system: ERK1/2; assay: Immunoblot analysis of ERK1/2 phosphorylation in ASM cells; assay type: cell-based, human
From the text: as §1

[6] = system: rabbit ASM tissues; assay: Constrictor responsiveness to acetylcholine (ACh) in isolated rabbit ASM tissues, isometric tension in organ bath
From the text: as §1

[7] = system: rabbit ASM tissues; assay: Relaxation responsiveness to isoproterenol in isolated rabbit ASM tissues half-maximally contracted with ACh
From the text: as §1

[8] = vehicle-exposed control tissues

Compound: Cc1c2oc3c(C)ccc(C(=O)N[C@@H]4C(=O)N[C@H](C(C)C)C(=O)N5CCC[C@H]5C(=O)N(C)CC(=O)N(C)[C@@H](C(C)C)C(=O)O[C@@H]4C)c3nc-2c(C(=O)N[C@@H]2C(=O)N[C@H](C(C)C)C(=O)N3CCC[C@H]3C(=O)N(C)CC(=O)N(C)[C@@H](C(C)C)C(=O)O[C@@H]2C)c(N)c1=O [actinomycin D] (I: T[dV]P[Sar][NMeV] / II: T[dV]P[Sar][NMeV]; ester I:1-I:C, II:1-II:C; linker I:N-II:N via Actinocin(9to1))
- effect of the agent alone on basal PDE activity [1]: neither actinomycin D nor cycloheximide alone significantly affected
- effect of pretreatment on PGE2- and forskolin-induced increases in PDE activity [2]: completely ablated
- effect of pretreatment on salmeterol- and isoproterenol-induced increase in PDE activity [2]: completely ablated

Compound: C[C@@H]1C[C@@H]([C@H](O)CC2CC(=O)NC(=O)C2)C(=O)[C@@H](C)C1 [cycloheximide]
- effect of the agent alone on basal PDE activity [1]: neither actinomycin D nor cycloheximide alone significantly affected
- effect of pretreatment on PGE2- and forskolin-induced increases in PDE activity [2]: completely ablated
- effect of pretreatment on salmeterol- and isoproterenol-induced increase in PDE activity [2]: completely ablated

Compound: C=C[C@@]1(C)CC(=O)[C@]2(O)[C@@]3(C)[C@@H](O)CCC(C)(C)[C@@H]3[C@H](O)[C@H](OC(C)=O)[C@@]2(C)O1 [forskolin]
- PDE activity, fold above control [1]: 4.01 fold

Compound: CC(C)NCC(O)c1ccc(O)c(O)c1 (centres unmarked) [isoproterenol]
- cAMP PDE (PDE4) activity relative to vehicle-treated control cells ([1]; cells exposed 24 hr to the agent): significantly increased
- PDE activity, fold above control [1]: ~2 fold
- time of peak PDE4D5 mRNA induction ([3]; PGE2 100 nM, salmeterol or isoproterenol 10 μM): 6 h
- peak PDE4D5 mRNA expression, fold above unstimulated cells ([3]; densitometric analysis, 3 experiments, PGE2 100 nM, salmeterol or isoproterenol 10 μM): 5.7 fold
- phosphorylation of CREB and ATF1 in cells treated with the agent ([4]; isoproterenol 10 μM): transiently increased phosphorylation
- time of peak CREB/ATF1 phosphorylation ([4]; isoproterenol 10 μM): 30 min
- time of peak ERK1/2 phosphorylation ([5]; PGE2 100 nM, isoproterenol or salmeterol 10 μM): 20 min
- ERK1/2 phosphorylation in cells treated with the agent ([5]; PGE2 or forskolin 100 nM, isoproterenol or salmeterol 10 μM): increased phosphorylation of ERK1/2; also recorded: enhanced ERK1/2 phosphorylation
- increase in ERK1/2 phosphorylation, fold above control (vehicle-treated) cells ([5]; densitometric ratios, mean±SE, PGE2 30 min, isoproterenol 20 min): 2.30±0.18 fold and 2.3 fold

Compound: MPS- Gαi2 (AAVALLPAVLLALLAKNNLKDCGLF; also: MPS attached) [Gαi2 blocking peptide]
- effect of pretreatment on PGE2-induced increase in PDE activity [2]: only a partial inhibitory effect
- effect of pretreatment on PGE2-induced increase in PDE activity ([2]; listed as anti-Gαi2 inhibitory peptide): only exerts a partial inhibitory effect

Compound: pertussis toxin [PTX]
- effect of pretreatment on PGE2-induced increase in constrictor responsiveness to ACh ([6]; PGE2 100 nM x 24 hr): abrogated
- effect of the agent alone on constrictor responses to ACh [6, 8]: no significant effect
- effect of pretreatment on PGE2-induced impaired relaxation to isoproterenol ([7]; PGE2 100 nM x 24 hr): abrogated
- effect of the agent alone on relaxation responses to isoproterenol [7, 8]: no significant effect
- effect of pretreatment on PGE2-induced upregulated PDE4D5 mRNA expression ([3]; PGE2 100 nM, 6 hr): markedly inhibited; also recorded: ablated
- effect of pretreatment on β2AR agonist (isoproterenol)-induced upregulated PDE4D5 mRNA expression ([3]; isoproterenol 10 μM, 6 hr): prevented; also recorded: ablated
- effect on PGE2-induced phosphorylation of CREB/ATF1 ([4]; 30 min): largely prevented; also recorded: ablated
- effect on PGE2-induced phosphorylation of ERK1/2 ([5]; PGE2 100 nM, 30 min): largely prevented; also recorded: ablated
- effect of pretreatment on PGE2-induced increase in PDE activity [2]: completely ablated
- effect of pretreatment on PGE2- and forskolin-induced increases in PDE activity [2]: completely ablated
- effect of pretreatment on salmeterol- and isoproterenol-induced increase in PDE activity [2]: completely abrogated; also recorded: ablated
